This is an account of results in publication PMC7734590, “Identification of a Selective RelA Inhibitor Based on DSE-FRET Screening Methods” (International Journal of Molecular Sciences, 2020).

One experiment addresses RelA (Homo sapiens, UniProt Q04206). Put plainly: DSE-FRET RelA–DNA binding inhibition. The experiment is classed as biochemical.
The subject of experiment [1] is T1, NF-κB–DNA complexes in PK8 nuclear extract.
T1 construct: nuclear extracts from tumor necrosis factor (TNF)-α-treated PK8 cells; endogenous in cells; host or cells: PK8 (human pancreatic carcinoma), TNF-α 50 ng/mL for 10 min, nuclear extract
Put plainly: EMSA with nuclear extracts from TNF-α-treated PK8 cells. The conditions noted are these: TNF-α 50 ng/mL 10 min. The class given is biochemical, human. Here is the method: (§1) For EMSA using nuclear extract, PK8 cells were treated with TNF-α (50 ng/mL) for 10 min before nuclear protein extraction. The cells were washed with ice-cold phosphate-buffered saline (PBS), followed by buffer A (10 mM HEPES–NaOH, pH 7.9, 10 mM KCl, 1.5 mM MgCl2, 0.5 mM DTT, and 0.5 mM phenylmethanesulfonyl fluoride (PMSF)). After 15 min on ice, the cell suspension was centrifuged at 4 °C for 3 min at 2000 rpm, and the resultant cell pellets were resuspended in buffer A. Cells were homogenized using Dounse homogenizer type A (tight, 50 stroke) on ice. Homogenates were centrifuged at 4 °C for 10 min at 5000 rpm, and the resultant nuclear protein pellets were resuspended in buffer C (20 mM HEPES–NaOH pH 7.9, 600 mM KCl, 1.5 mM MgCl2, 25% glycerol, 0.2 mM EDTA, 0.5 mM DTT, and 0.5 mM PMSF). The nuclear proteins were incubated for 1 h on ice with intermittent tapping followed by 15 min of centrifugation at 18,000 rpm (4 °C). The supernatants were dialyzed using a Slide-A-Layzer Dialysis cassette 3500MW (Thermo: 66110) with buffer D (20 mM HEPES–NaOH pH 7.9, 100 mM KCl, 20% glycerol, 0.2 mM EDTA, 0.5 mM DTT, and 0.5 mM PMSF). The dialysis products were then aliquoted, snap-frozen, and stored at −80 °C.

Experiment [2] concerns NF-κB–DNA complexes in PK8 nuclear extract. Described as above. The class given is biochemical, human. The conditions noted are these: 500 µM A55. Here is the method:
as §1

pIC50: −log10 of the molar value.

RelA, sequence (Q04206 19-306 limits assumed): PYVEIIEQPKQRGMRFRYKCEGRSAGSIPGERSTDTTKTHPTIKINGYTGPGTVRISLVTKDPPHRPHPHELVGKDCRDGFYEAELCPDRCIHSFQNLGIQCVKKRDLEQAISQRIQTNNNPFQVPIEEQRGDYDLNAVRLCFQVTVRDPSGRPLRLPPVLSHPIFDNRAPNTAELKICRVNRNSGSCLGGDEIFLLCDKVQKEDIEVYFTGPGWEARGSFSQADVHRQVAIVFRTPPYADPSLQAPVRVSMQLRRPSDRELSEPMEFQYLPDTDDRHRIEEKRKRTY
Procedure for RelA: Plate-based (384 scale) DNA-binding experiments were carried out with 0.1 µL of 2 mM or 1 mg/mL compound, 2 µL of 80 nM NF-D1 (consisting of NF-01F and NF-14D), 1 µL of 20 ng/µL poly dI-dC, and 6.9 µL of 3.2 pmol protein in binding buffer (10 mM 4-(2-hydroxyethyl)-1-piperazineethanesulfonic acid (HEPES)–NaOH pH 7.9, 50 mM KCl, 0.1 mM ethylenediaminetetraacetic acid (EDTA), 2.5 mM dithiothreitol (DTT), 10% glycerol, and 0.05% Nonidet P40). The plates were incubated for 30 min at room temperature, after which 10 µL of NF-D2 (consisting of NF-02 and NF-13) was added. The plates were centrifuged at 1000 rpm for 30 s, followed by shaking for 30 s using a plate shaker (Biotec). Fluorescence was measured at 528 nm, after excitation at 485 nm, using a multiplate reader (Biotec) over a period of 60 min.

As usually defined, the inhibition is the share of the control response that was lost under treatment. For orientation: pIC50 means −log10 of the IC50, conventionally taken in molar units. Read a high pIC50 as a small IC50. Regarding `Cc1cc(O)n(CC(=O)O)c(=O)c1C(N)=O` [A55, 2-(3-carbamoyl-6-hydroxy-4-methyl-2-oxopyridin-1(2H)-yl) acetic acid], on RelA (2nd screening at 96 well plate, 1 = judged hit), the “Hit Judgement of: RelA” value was 1. For the same molecule, the “dose–response of RelA–DNA binding inhibition” value on RelA (2–10 µM) is “inhibited RelA–DNA binding in a concentration-dependent manner”. Further, the “ligand efficiency (LE)” value at RelA (16 heavy atoms) was determined as 0.44. In addition, the “RelA–DNA binding inhibition” value on RelA (96-well plate, in silico selected compounds) is reported as “over 50%”. Further, the “RelA–DNA binding inhibition at 50 µM” value on RelA (96-well plates, 50 µM) is “inhibited only RelA–DNA binding”. In addition, the inhibition at 50 µM at RelA (96 well plate, 50 µM, 120 min-0 min, read-out: Kinetic assay @ 50 µM RelA Inhibition % ΔRFU(120 min-0 min)) was 63%. Moreover, the pIC50 at RelA (DSE-FRET) is 5.03. Further, the “EMSA band shift, RelA–DNA complex (upper band)” value in experiment [1] is reported as “Only the upper band disappeared”. The “EMSA band shift, other protein–DNA complexes (lower band)” value in experiment [2] was “did not affect the lower band”.
